Reference: patent publication US6172081A, “Tetrahydroisoquinoline 3-carboxamide derivatives” (Novartis AG, priority 1999, dated 2001)
Counter-ions that a name gives are not always drawn.

Key:
Type in all cases: biochemical
DPP-IV = target: T1, DPP-IV (Homo sapiens, UniProt P27487); test: Caco-2 DPP-IV Assay (inhibition of DPP-IV activity from human colonic carcinoma cell extracts); conditions: Caco-2 cell extract; substrate H-Alanine-Proline-pNA; pH 7.4; room temperature, 10 minutes
T1 construct: DPP-IV activity from human colonic carcinoma cell extracts; endogenous in cells; host or cells: Caco-2 (ATCC HTB 37), differentiated to induce DPP-IV expression; nonidet-P40 extract
Text: As indicated above, all of the compounds of formula I, and their corresponding pharmaceutically acceptable acid addition salts, are useful in inhibiting DPP-IV. […] The human colonic carcinoma cell line Caco-2 was obtained from the American Type Culture Collection (ATCC HTB 37). Differentiation of the cells to induce DPP-IV expression was accomplished as described by Reisher, et al. in an article entitled "Increased expression of . . . intestinal cell line Caco-2" in Proc. Natl. Acad. Sci., Vol. 90, pgs. 5757-5761 (1993). Cell extract is prepared from cells solubilized in 10 mM Tris-HCl, 0.15 M NaCl, 0.04 t.i.u. aprotinin, 0.5% nonidet-P40, pH 8.0, which is centrifuged at 35,000 g for 30 min. at 4° C. to remove cell debris. The assay is conducted by adding […] solubilized Caco-2 protein, diluted to a final volume of 125 mL in assay buffer (25 mM Tris-HCl pH 7.4, 140 mM NaCl, 10 mM KCl, 1% bovine serum albumin) to microtiter plate wells. The reaction is initiated by adding 25 mL of 1 mM substrate (H-Alanine-Proline-pNA; pNA is p-nitroaniline). The reaction is run at room temperature for 10 minutes after which time a 19 mL volume of 25% glacial acetic acid is added to stop the reaction. Test compounds are typically added as 30 mL additions and the assay buffer volume is reduced to 95 mL. A standard curve of free p-nitroaniline is generated using […] solutions of free pNA in assay buffer. The curve generated is linear and is used for interpolation of substrate consumption (catalytic activity in nmoles substrate cleaved/min). The endpoint is determined by measuring absorbance at 405 nm in a Molecular Devices UV Max microtiter plate reader. The potency of the test compounds as DPP-IV inhibitors, expressed as IC50, is calculated from 8-point, dose-response curves using a 4-parameter logistic function.

human plasma DPP-IV = target: T2, human plasma DPP-IV (Homo sapiens, UniProt P27487); test: Inhibition of DPP-IV activity in human plasma; conditions: substrate H-Glycine-Proline-AMC, pH 7.8, room temperature, 20 min
T2 construct: DPP-IV activity in human and rat plasma; from tissue; host or cells: human plasma
Description: (§1) 192-197 (1992). Briefly, five […] are added to 96-well flat-bottom mictotiter plates (Falcon), followed by the addition of 5 mL of 80 mM MgCl2 in incubation buffer (25 mM HEPES, 140 mM NaCl, 1% RIA-grade BSA, pH 7.8). After a 5 min. incubation at room temperature, the reaction is initiated by the addition of 10 mL of incubation buffer containing 0.1 mM substrate (H-Glycine-Proline-AMC; AMC is 7-amino-4-methylcoumarin). The plates are covered with aluminum foil (or kept in the dark,) and incubated at room temperature for 20 min. After the 20 min. reaction, fluorescence is measured using a CytoFluor 2350 fluorimeter (Excitation 380 nm Emission 460 nm; sensitivity setting 4). Test compounds are typically added as 2 mL additions and the assay buffer volume is reduced to 13 mL. A fluorescence-concentration curve of free AMC is generated using […] solutions of AMC in assay buffer. The curve generated is linear and is used for interpolation of substrate consumption (catalytic activity in nmoles substrate cleaved/min). As with the previous assay, the potency of the test compounds as DPP-IV inhibitors, expressed as IC50, is calculated from 8-point, dose-response curves using a 4 parameter logistic function.

rat plasma DPP-IV = target: T3, rat plasma DPP-IV (Rattus norvegicus, UniProt P14740); test: Inhibition of DPP-IV activity in rat plasma; conditions: substrate H-Glycine-Proline-AMC, pH 7.8, room temperature, 20 min
T3 construct: DPP-IV activity in human and rat plasma; from tissue; host or cells: rat plasma
Description: as §1

T1 sequence (P27487 whole entry): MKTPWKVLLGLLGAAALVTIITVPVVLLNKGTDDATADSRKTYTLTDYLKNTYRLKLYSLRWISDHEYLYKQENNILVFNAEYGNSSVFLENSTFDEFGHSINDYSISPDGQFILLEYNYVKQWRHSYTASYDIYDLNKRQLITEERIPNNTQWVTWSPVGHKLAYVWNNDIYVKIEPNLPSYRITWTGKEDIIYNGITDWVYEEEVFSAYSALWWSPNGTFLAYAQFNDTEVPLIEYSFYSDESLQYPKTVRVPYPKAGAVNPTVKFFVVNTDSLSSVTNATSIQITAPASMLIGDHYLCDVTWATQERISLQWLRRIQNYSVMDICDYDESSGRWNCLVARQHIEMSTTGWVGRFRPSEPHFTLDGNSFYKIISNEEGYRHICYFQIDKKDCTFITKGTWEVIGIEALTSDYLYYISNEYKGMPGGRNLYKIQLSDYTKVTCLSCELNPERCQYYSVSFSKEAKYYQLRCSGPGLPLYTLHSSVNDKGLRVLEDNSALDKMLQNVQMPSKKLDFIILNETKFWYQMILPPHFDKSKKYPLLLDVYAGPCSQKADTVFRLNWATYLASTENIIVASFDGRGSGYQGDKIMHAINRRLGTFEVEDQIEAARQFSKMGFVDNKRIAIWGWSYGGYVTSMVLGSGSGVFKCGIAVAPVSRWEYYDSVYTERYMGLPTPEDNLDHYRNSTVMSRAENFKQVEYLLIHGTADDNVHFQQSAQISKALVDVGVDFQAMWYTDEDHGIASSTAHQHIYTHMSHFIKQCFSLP
T3 sequence (P14740 37-767 limits assumed): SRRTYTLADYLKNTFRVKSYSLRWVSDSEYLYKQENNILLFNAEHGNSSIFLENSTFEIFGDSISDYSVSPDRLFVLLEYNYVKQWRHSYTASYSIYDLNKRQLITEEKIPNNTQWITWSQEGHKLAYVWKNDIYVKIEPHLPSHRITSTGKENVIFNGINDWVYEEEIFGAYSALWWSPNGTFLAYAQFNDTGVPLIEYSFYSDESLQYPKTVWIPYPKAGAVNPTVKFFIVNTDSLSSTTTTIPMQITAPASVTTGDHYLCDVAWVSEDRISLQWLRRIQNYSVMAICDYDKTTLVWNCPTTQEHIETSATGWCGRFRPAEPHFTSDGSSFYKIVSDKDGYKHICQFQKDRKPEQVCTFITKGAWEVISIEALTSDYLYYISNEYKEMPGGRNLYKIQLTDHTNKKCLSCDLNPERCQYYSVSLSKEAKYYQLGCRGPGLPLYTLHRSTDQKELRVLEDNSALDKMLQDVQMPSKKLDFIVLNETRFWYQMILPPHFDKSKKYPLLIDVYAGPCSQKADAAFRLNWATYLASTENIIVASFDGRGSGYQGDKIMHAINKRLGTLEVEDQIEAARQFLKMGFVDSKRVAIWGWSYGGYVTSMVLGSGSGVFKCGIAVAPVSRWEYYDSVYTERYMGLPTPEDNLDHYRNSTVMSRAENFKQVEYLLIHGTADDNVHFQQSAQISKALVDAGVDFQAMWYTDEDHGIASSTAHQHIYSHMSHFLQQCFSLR
T2 sequence (P27487 39-766 limits assumed): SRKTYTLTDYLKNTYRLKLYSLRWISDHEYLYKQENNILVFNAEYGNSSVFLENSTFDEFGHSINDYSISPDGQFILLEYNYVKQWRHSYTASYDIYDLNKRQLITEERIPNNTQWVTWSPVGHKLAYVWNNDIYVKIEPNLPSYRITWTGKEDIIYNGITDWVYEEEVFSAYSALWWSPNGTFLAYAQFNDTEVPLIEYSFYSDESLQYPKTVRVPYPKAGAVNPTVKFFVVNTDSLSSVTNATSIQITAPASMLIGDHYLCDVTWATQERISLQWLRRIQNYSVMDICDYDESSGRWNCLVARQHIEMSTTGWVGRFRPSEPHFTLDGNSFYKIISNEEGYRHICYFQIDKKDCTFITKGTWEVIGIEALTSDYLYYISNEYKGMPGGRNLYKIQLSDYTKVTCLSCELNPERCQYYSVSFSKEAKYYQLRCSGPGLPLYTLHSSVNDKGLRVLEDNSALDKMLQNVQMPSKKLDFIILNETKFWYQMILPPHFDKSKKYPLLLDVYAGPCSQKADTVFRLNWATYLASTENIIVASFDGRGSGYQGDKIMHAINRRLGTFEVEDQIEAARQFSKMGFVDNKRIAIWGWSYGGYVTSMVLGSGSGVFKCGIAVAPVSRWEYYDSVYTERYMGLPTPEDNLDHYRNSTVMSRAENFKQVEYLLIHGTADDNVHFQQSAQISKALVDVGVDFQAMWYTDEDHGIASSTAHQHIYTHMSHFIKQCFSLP

| Compound | IC50 (DPP-IV) | IC50 (human plasma DPP-IV) | IC50 (rat plasma DPP-IV) |
| --- | --- | --- | --- |
| CCOCCOCCOc1ccc2c(c1)CN[C@H](C(=O)N1CCC[C@H]1C#N)C2 [Ex. 9, [S-(R*,R*)]-1-[7-[2-(2-ethoxyethoxy)ethoxy]-1,2,3,4-tetrahydro-3-isoquinolinyl]carbonyl-2-Pyrrolidinecarbonitrile trifluoroacetate] | 10 nM | – | – |
| N#C[C@@H]1CCCN1C(=O)[C@@H]1Cc2ccc(OCC(N)=O)cc2CN1 [Ex. 10, [S-(R*,R*)]-[3-(2-cyano-1-pyrrolidinyl)carbonyl-1,2,3,4-tetrahydro-7-isoquinolinyl]oxy-Acetamide] | 16 nM | 5 nM | 12 nM |
| CCCOc1ccc2c(c1)CN[C@H](C(=O)N1CCC[C@H]1C#N)C2 [Ex. 5, [S-(R*,R*)]-1-(1,2,3,4-tetrahydro-7-propoxy-3-isoquinolinyl)carbonyl-2-Pyrrolidinecarbonitrile trifluoroacetate] | 8 nM | 49 nM | 315 nM |
| N#C[C@@H]1CCCN1C(=O)[C@@H]1Cc2ccc(OCC(=O)O)cc2CN1 [Ex. 11, [S-(R*,R*)]-[3-(2-cyano-1-pyrrolidinyl)carbonyl-1,2,3,4-tetrahydro-7-isoquinolinyl]oxy-Acetic acid] | 10 nM | – | – |
| N#C[C@@H]1CCCN1C(=O)[C@@H]1Cc2ccc(OCc3ccccc3)cc2CN1 [Ex. 4, [S-(R*,R*)]-1-(1,2,3,4-tetrahydro-7-phenylmethoxy-3-isoquinolinyl)carbonyl-2-Pyrrolidinecarbonitrile trifluoroacetate] | 9 nM | 167 nM | 1300 nM |
| N#C[C@@H]1CCCN1C(=O)[C@@H]1Cc2ccc(O)cc2CN1 [Ex. 2, [S-(R*,R*)]-1-(1,2,3,4-tetrahydro-7-hydroxy-3-isoquinolinyl)carbonyl-2-Pyrrolidinecarbonitrile trifluoroacetate] | 4 nM | – | – |
| N#C[C@@H]1CCCN1C(=O)[C@@H]1Cc2ccccc2CN1 [Ex. 1, [S-(R*,R*)]-1-(1,2,3,4-tetrahydro-3-isoquinolinyl)carbonyl-2-pyrrolidinecarbonitrile trifluoroacetate] | 7.6 nM | 41 nM | 790 nM |
| COc1cc2c(cc1OC)CC(C(=O)N1CCC[C@H]1C#N)NC2 (single isomer, unassigned; diastereomer b) [Ex. 7, 1-[1,2,3,4-tetrahydro-6,7-dimethoxy-3-isoquinolinyl]carbonyl-2-Pyrrolidinecarbonitrile [Diastereomer B]] | 13 nM | 12 nM | 78 nM |
| COc1cc2c(cc1OC)CC(C(=O)N1CCC[C@H]1C#N)NC2 (stereo partly drawn) [Ex. 6, [S-(R*,R*)]-1-[1,2,3,4-tetrahydro-6,7-dimethoxy-3-isoquinolinyl]carbonyl-2-Pyrrolidinecarbonitrile] | > 10000 nM | – | – |
| CCN(CC)CCCOc1ccc2c(c1)CNC(C(=O)N1CCCC1C#N)C2 (stereo not drawn) [Ex. 8, [S-(R*,R*)]-1-[7-(3-diethylamino)propoxy-1,2,3,4-tetrahydro-3-isoquinolinyl]carbonyl-2-Pyrrolidinecarbonitrile] | 10 nM | – | – |
| COc1ccc2c(c1)CN[C@H](C(=O)N1CCC[C@H]1C#N)C2 [Ex. 3, [S-(R*,R*)]-1-(1,2,3,4-tetrahydro-7-methoxy-3-isoquinolinyl)carbonyl-2-Pyrrolidinecarbonitrile trifluoroacetate] | 14 nM | 4 nM | 16 nM |
